Reference: the supplement of paper PMC10307832

Columns and labels:
Experiment in all cases: relative viability (nuclei count vs DMSO), 5 days (fraction); higher = more cells survive
AGI-6780 = compound: O=C(Nc1cccc(C(F)(F)F)c1)Nc1cc(S(=O)(=O)NC2CC2)ccc1-c1ccsc1 [AGI-6780]
How it was run: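 Viability is treated-well nuclei as a fraction of vehicle-well nuclei, reported as the median across plates. Before counting, lung cancer cell lines were kept overnight at 37 °C in 1536-well plates, pinned with five √10-spaced library-drug doses on vehicle-anchored plates, and left 5 days without medium change, then fixed, permeabilised and Hoechst-stained in one step, imaged at 4× and counted by MetaXpress. A plate passed only if control CV was below 25% and at least one doubling occurred.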

AGI-6780 + Tozasertib = compound: O=C(Nc1cccc(C(F)(F)F)c1)Nc1cc(S(=O)(=O)NC2CC2)ccc1-c1ccsc1 [AGI-6780] + Cc1cc(Nc2cc(N3CCN(C)CC3)nc(Sc3ccc(NC(=O)C4CC4)cc3)n2)n[nH]1 [Tozasertib] (partner 0.1 µM)
How it was run: (§1)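 After 5 days of treatment, lung cancer cells in 1536-well plates were fixed and stained in a single step (final 0.05% Triton X-100, 1% formaldehyde, 1 ug/ml Hoechst) and their nuclei counted on 4× images. Treatment had been applied by pin tool the day after seeding as one drug alone or as a fixed anchor-drug dose with five library-drug doses (not always all listed) in √10 steps. Relative viability is the nuclei count of treated wells divided by that of vehicle wells, and values are medians of duplicate plates.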

AGI-6780 + Navitoclax = compound: O=C(Nc1cccc(C(F)(F)F)c1)Nc1cc(S(=O)(=O)NC2CC2)ccc1-c1ccsc1 [AGI-6780] + CC1(C)CCC(c2ccc(Cl)cc2)=C(CN2CCN(c3ccc(C(=O)NS(=O)(=O)c4ccc(N[C@H](CCN5CCOCC5)CSc5ccccc5)c(S(=O)(=O)C(F)(F)F)c4)cc3)CC2)C1 [Navitoclax] (partner 0.5 µM)
How it was run: as §1

AGI-6780 + Phenformin = compound: O=C(Nc1cccc(C(F)(F)F)c1)Nc1cc(S(=O)(=O)NC2CC2)ccc1-c1ccsc1 [AGI-6780] + N=C(N)NC(=N)NCCc1ccccc1 [Phenformin] (partner 250 µM)
How it was run: as §1

Cell Line	relative viability (AGI-6780; 0.08 µM)	relative viability (AGI-6780; 0.253 µM)	relative viability (AGI-6780; 0.8 µM)	relative viability (AGI-6780; 2.53 µM)	relative viability (AGI-6780; 8 µM)	relative viability (AGI-6780 + Tozasertib; first compound 0.08 µM)	relative viability (AGI-6780 + Tozasertib; first compound 0.253 µM)	relative viability (AGI-6780 + Tozasertib; first compound 0.8 µM)	relative viability (AGI-6780 + Tozasertib; first compound 2.53 µM)	relative viability (AGI-6780 + Tozasertib; first compound 8 µM)	relative viability (AGI-6780 + Navitoclax; first compound 0.08 µM)	relative viability (AGI-6780 + Navitoclax; first compound 0.253 µM)	relative viability (AGI-6780 + Navitoclax; first compound 0.8 µM)	relative viability (AGI-6780 + Navitoclax; first compound 2.53 µM)	relative viability (AGI-6780 + Navitoclax; first compound 8 µM)	relative viability (AGI-6780 + Phenformin; first compound 0.08 µM)	relative viability (AGI-6780 + Phenformin; first compound 0.253 µM)	relative viability (AGI-6780 + Phenformin; first compound 0.8 µM)	relative viability (AGI-6780 + Phenformin; first compound 2.53 µM)	relative viability (AGI-6780 + Phenformin; first compound 8 µM)
201T	0.996	1	0.997	0.989	0.995	0.916	0.95	0.938	0.835	0.968	1.26	1.19	1.24	1.18	1.26	0.495	0.41	0.486	0.427	0.492
A549	0.992	0.992	1.08	0.745	0.992	–	–	–	–	–	1.31	1.27	1.37	1.13	1.23	0.153	0.177	0.25	0.133	0.175
A-427	0.994	0.919	1.1	0.815	1.04	0.264	0.217	0.19	0.154	0.168	0.942	0.922	1	0.81	0.942	0.326	0.294	0.359	0.315	0.338
ABC-1	0.799	1.06	1.08	0.851	0.901	0.186	0.212	0.17	0.206	0.167	–	–	–	–	–	0.218	0.263	0.238	0.263	0.197
BEN	0.834	0.959	1.04	–	0.957	0.526	0.497	0.503	0.433	0.425	0.0592	0.0703	0.0549	–	0.0845	0.25	0.281	0.289	0.288	0.28
CAL-12T	0.962	1.02	1.18	1.03	1.07	0.389	0.32	0.3	0.276	0.31	1.2	1.17	1.38	1.53	1.25	0.61	0.579	0.626	0.632	0.566
Calu-6	1.03	1.01	1.07	0.993	1.03	–	–	–	–	–	0.948	0.815	0.846	0.833	0.891	–	–	–	–	–
EBC-1	1.07	1.04	0.985	1	1	–	–	–	–	–	0.407	0.429	0.365	0.512	0.38	–	–	–	–	–
IA-LM	0.921	0.954	1.15	1.02	1.04	–	–	–	–	–	0.761	0.768	0.908	0.787	0.959	–	–	–	–	–
LCLC-103H	1.05	1.08	0.963	0.861	0.941	0.492	0.475	0.51	0.451	0.562	–	–	–	–	–	0.311	0.305	0.338	0.33	0.375
NCI-H358	1.1	0.911	0.95	0.794	0.916	0.11	0.108	0.112	0.105	0.11	–	–	–	–	–	0.363	0.317	0.438	0.35	0.394
NCI-H522	0.972	0.965	0.909	0.865	0.962	0.485	0.5	0.606	0.534	0.53	–	–	–	–	–	0.706	0.659	0.633	0.616	0.627
NCI-H650	0.873	1.04	0.937	0.843	1.06	0.749	0.747	0.72	0.642	0.7	–	–	–	–	–	0.447	0.502	0.451	0.435	0.438
NCI-H661	1	1	1.08	0.876	0.947	0.367	0.36	0.357	0.345	0.354	–	–	–	–	–	0.284	0.344	0.27	0.261	0.252
NCI-H1299	1	0.98	0.955	1.04	1.01	–	–	–	–	–	1.02	1.06	0.97	1.06	1.02	–	–	–	–	–
NCI-H1563	0.999	1.02	0.949	0.87	0.98	–	–	–	–	–	–	–	–	–	–	0.671	0.666	0.66	0.643	0.672
NCI-H1648	0.735	0.999	0.983	0.942	1.08	0.45	0.581	0.639	0.401	0.378	–	–	–	–	–	–	–	–	–	–
NCI-H1703	0.949	0.84	1.02	0.823	0.807	–	–	–	–	–	1.49	1.21	1.25	1.1	1.25	–	–	–	–	–
NCI-H1792	0.856	1.22	0.946	0.727	0.986	–	–	–	–	–	0.377	0.613	0.834	0.629	0.625	0.159	0.279	0.195	0.241	0.345
NCI-H2342	0.984	1.01	1.15	0.848	1.2	0.56	0.52	0.593	0.43	0.597	–	–	–	–	–	0.572	0.759	0.636	0.53	0.793
